Columns and labels:
[1] = molecular target: T1, guinea pig ileum H1 -receptor histamine (Cavia porcellus, UniProt P31389); experiment: Blocking of histamine-induced contractions in the isolated guinea pig ileum; format: cell-based; conditions: calculated, mixed antagonist
T1 construct: isolated guinea pig ileum; from tissue; host or cells: isolated guinea pig ileum
Description: (§1) Compounds of formula I have useful pharmacological properties. In particular, they are potent H1 antihistamines.

[2] = test system: histamine-induced cutaneous capillary permeability; experiment: Inhibition of the increment of histamine-induced cutaneous capillary permeability in rats; format: in vivo, rat
Description: as §1

[3] = test system: acetylcholine-induced contractions in isolated guinea pig ileum; experiment: Antagonism of acetylcholine-induced contractions in isolated guinea pig ileum; format: cell-based; design: dose or concentration left out as unconfirmed
[4] = test system: spontaneous motor activity; experiment: Spontaneous motor activity of the rat; format: in vivo; conditions: 100 mg/kg p.o.
ECG / QTc interval = experiment: ECG and QTc interval in rats after i.v. administration; format: in vivo, rat; conditions: 20 mg/kg i.v.

T1 sequence (P31389 whole entry): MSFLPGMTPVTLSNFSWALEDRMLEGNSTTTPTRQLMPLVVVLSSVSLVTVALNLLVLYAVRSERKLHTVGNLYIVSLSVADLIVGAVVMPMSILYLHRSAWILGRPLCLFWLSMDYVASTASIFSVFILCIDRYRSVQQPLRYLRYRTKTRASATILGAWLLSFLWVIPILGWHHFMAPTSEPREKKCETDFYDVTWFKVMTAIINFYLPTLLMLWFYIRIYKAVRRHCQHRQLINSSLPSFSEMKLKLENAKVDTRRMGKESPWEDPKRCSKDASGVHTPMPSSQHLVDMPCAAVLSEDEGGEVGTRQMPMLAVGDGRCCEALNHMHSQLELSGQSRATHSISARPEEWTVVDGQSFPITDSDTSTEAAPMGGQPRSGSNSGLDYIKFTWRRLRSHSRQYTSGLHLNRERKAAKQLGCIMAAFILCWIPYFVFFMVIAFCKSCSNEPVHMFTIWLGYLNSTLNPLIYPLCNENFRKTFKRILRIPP

pD2' [1]: 6.50
Kb ([1]; read-out: pA2 (converted)): 7.94 to 10.5 nM
effect on spontaneous motor activity [4]: does not modify
Compound: CCOCCn1c(C2CCN(CCc3ccc(C(C)(C)C(=O)O)cc3)CC2)nc2ccccc21 [Ib (R1 =Et), 2-[4-(2-(4-(1-(2-ethoxyethyl)benzimidazole-2-yl)piperidine-1-yl)ethyl)phenyl]-2-methylpropanoic Acid]
duration of significant activity in excess of 50% ([2]; 5 mg/kg p.o.): at least 6 hours
inhibition at 5 mg/kg ([2]; Rattus norvegicus, po, 5 mg/kg p.o., maintained for at least 6 hours, read-out: activity (inhibition of the increase in capillary permeability)): > 50%
ED50 ([2]; Rattus norvegicus, po, read-out: DE50, inhibition of the increase in capillary permeability): ~2 mg/kg
antagonism of acetylcholine-induced contractions [3]: not able to antagonize significantly
increase of the QTc interval (ECG / QTc interval): nor does it increase the QTc interval
morphological ECG disturbance (ECG / QTc interval): induces no morphological ECG disturbance
